Assay results published in US20260306492A1 (BRISTOL-MYERS SQUIBB COMPANY, priority 2023, published 2026).
Where two headings read alike, the source gives them in different places.

Tests used:
[1] = system: intrinsic and final common pathways of the coagulation cascade (aPTT); assay: Activated partial thromboplastin time (aPTT), AXIOMATIC-TKR Phase II; format: in vivo, human; conditions: for aPTT, measured value, median: enoxaparin 40 mg QD sc
Description: As used herein, the term “activated partial thromboplastin time (aPTT)” refers to a measure of the intrinsic and final common pathways of the coagulation cascade. It represents the time, in seconds, for plasma to clot after addition of phospholipid, an intrinsic pathway activator, and calcium. […] The term ‘partial’ means phospholipid is present but no tissue factor. The normal and reference ranges vary depending on reagent and instrument combinations, particularly with the phospholipid composition.
In some embodiments, aPTT is measured as follows: Plasma samples are incubated with Actin FS aPTT assay reagent containing a standard amount of phospholipid and contact activator (ellagic acid) which activates the intrinsic coagulation pathway. After incubating for 3 minutes, calcium chloride is added to initiate coagulation and formation of a fibrin clot is measured optically. The time to clot formation (measured in seconds) is reported as the Activated Partial Thromboplastin Time (aPTT).
(§1) Assessment of the dose-response for the occurrence of any bleeding was a secondary objective.
(§2) PD analyses were performed on the PD analysis set, defined as subjects who had at least one valid blood sample drawn for PD. Descriptive statistics (N, mean, SD, median, range, CV (%) and IQ range) were used to summarize PD response at each nominal sampling time point by treatment group. Changes from baseline were summarized when applicable. PD response outside of limit of quantitation were not to be imputed and were to be noted in the summary statistics.

[2] = system: thrombin generation; assay: Thrombin Generation Assay (TGA), AXIOMATIC-TKR Phase II; format: in vivo, human; conditions: for ETP Lag Time, measured value, median / ETP Peak Height, measured value, mean / ETP Lag Time, measured value, mean / ETP Peak Height, measured value, median: enoxaparin 40 mg QD sc
Description: As used herein, “Thrombin Generation Assay (TGA)” is a global coagulation assay that evaluates the thrombogenic capacity of a plasma sample and has been proposed that it may better reflect prothrombotic or hemorrhagic states than conventional clotting assays. In the traditional TGA, coagulation of citrated plasma is initiated through the extrinsic pathway by adding tissue factor, phospholipids, and calcium. For this study, in the in-vitro thrombin generation assay (TGA) using human platelet-rich plasma, and a kaolin slurry was used instead to initiate coagulation through the contact activation pathway. Thrombin generation is continuously monitored through the product released by cleavage of a thrombin-specific fluorogenic substrate. The generated thrombogram is used to determine several relevant parameters, including endogenous thrombin potential, defined as the area under the thrombin concentration vs. time curve. […]
as §2

[3] = Milvexian plasma pharmacokinetics, AXIOMATIC-TKR Phase II
Description: (AXIOMATIC-TKR Phase II). […] Assessment of the dose-response for the occurrence of any bleeding was a secondary objective.

[4] = system: participants undergoing primary unilateral elective TKR surgery; assay: Total venous thromboembolism (VTE) in TKR patients, AXIOMATIC-TKR; format: in vivo, human
[5] = Milvexian pharmacokinetics in humans (healthy volunteers / terminal half-life)
Description: (AXIOMATIC-TKR Phase II). […] “Half-life (t1/2),” as used herein, refers to apparent terminal elimination half-life having a mean value calculated using formula t1/2=loge2/λz, where λz is the apparent terminal elimination rate-constant estimated by linear regression using the terminal log-linear phase of the logarithmic (log) transformed concentration vs time data.

[6] = Bleeding in AXIOMATIC-TKR and AXIOMATIC-SSP; format: in vivo, human
Description: […]. […] […]. […] […].

[7] = system: participants with non-lacunar, non-cardioembolic ischemic stroke or TIA; assay: AXIOMATIC-SSP Phase 2, efficacy (ischemic stroke / covert brain infarction); format: in vivo, human
[8] = Thorough QT (TQT) study in healthy adults; format: in vivo, human; conditions: for ΔΔQTcF, highest upper limit of 2-sided 90% CI: Day 1 and Day 4
Procedure: Pharmacokinetic analysis was performed on the plasma concentrations of each participant.

[9] = Milvexian clinical program, adverse drug reactions; format: in vivo, human; conditions: milvexian clinical development program
Description: […]. […] […]. Milvexian in the two Phase II clinical trials (AXIOMATIC-TKR and AXIOMATIC-SSP) focused on different patient populations.

[10] = system: participants with non-lacunar, non-cardioembolic ischemic stroke or TIA; assay: AXIOMATIC-SSP Phase 2, safety (bleeding, adverse events)
[11] = Steady-state plasma pharmacokinetics of milvexian 100 mg BID
[12] = cited from earlier work; for VTE prevention versus enoxaparin 40 mg once daily: orthopedic surgery, historical Phase 3; for bleeding: Phase 2 orthopedic surgery studies and with antiplatelets after an ACS
[13] = molecular target: T1, Factor XI (Homo sapiens, UniProt P03951); assay: FXI clotting activity (FXI:c), AXIOMATIC-TKR Phase II; format: in vivo; conditions: enoxaparin 40 mg QD sc
T1 construct: aPTT one-stage clotting with FXI-deficient plasma
Procedure: As used herein, “Factor XI Clotting Activity” is determined utilizing an aPTT-based 1-stage clotting time assay. Serial dilutions of normal pooled plasma are mixed with FXI-depleted plasma and the clotting times are measured according to standard aPTT protocol, to establish a reference range. Subject test plasma is treated in the same way and compared with the reference plasma.
In some embodiments, the Factor XI Clotting Activity is measured as follows: Factor XI (FXI) activity is measured using a modification of the activated partial thromboplastin time (aPTT) using Actin FS (Siemens Healthcare) on the Siemens BCS®XP analyzer. […] The reference standard, at approximately 100%, is diluted by the BCS®XP analyzer in saline to generate pre-selected calibration levels of FXI. The calibration curve is plotted with FXI activity in percent (%) on the x-axis and clotting time in seconds on the y-axis. A log/lin regression curve fit is used. […] APTT reagent (Actin FS) is added and the mixture is incubated. Following incubation, calcium chloride is added to the mixture and the time to clot formation (measured optically) is compared to the time on the calibration curve. Samples are tested at the base dilution (1:10) prepared by the BCS®XP in saline.
as §1, §2

[14] = 100 mg BID on top of standard care antiplatelet therapy

T1 sequence (P03951 19-625): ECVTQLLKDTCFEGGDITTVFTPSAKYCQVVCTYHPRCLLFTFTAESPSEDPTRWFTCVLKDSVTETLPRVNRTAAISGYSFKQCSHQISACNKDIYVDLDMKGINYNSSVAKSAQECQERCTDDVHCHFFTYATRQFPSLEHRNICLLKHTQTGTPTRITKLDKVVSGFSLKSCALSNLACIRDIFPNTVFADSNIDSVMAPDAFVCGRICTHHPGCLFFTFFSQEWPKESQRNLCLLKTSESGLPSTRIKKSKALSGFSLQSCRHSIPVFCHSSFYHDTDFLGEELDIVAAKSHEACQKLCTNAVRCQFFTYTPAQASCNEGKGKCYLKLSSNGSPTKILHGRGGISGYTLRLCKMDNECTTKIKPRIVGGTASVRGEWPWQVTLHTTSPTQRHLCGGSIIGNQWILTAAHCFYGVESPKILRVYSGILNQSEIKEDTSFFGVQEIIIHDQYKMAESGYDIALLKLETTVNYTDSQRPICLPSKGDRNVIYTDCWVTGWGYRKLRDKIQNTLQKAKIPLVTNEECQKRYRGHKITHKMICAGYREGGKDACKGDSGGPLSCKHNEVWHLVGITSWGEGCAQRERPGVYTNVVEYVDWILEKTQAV

C[C@@H]1CCC[C@H](n2cnc(-c3cc(Cl)ccc3-n3cc(Cl)nn3)cc2=O)c2cc(ccn2)-c2c(cnn2C(F)F)NC1=O [Milvexian, (5R,9S)-9-(4-(5-chloro-2-(4-chloro-1H-1,2,3-triazol-1-yl)phenyl)-6-oxopyrimidin-1 (6H)-yl)-2^1-(difluoromethyl)-5-methyl-2^1H-3-aza-1 (4,2)-pyridina-2 (5,4)-pyrazolacyclonaphan-4-one]
aPTT dose dependence ([1]; 25-200 mg QD/BID): dose related increase in aPTT
lag time dose dependence ([2]; 25-200 mg QD/BID): dose related prolongation in the lag time
peak thrombin and area under the curve (total thrombin generation) ([2]; 25-200 mg QD/BID): dose related reductions in peak thrombin and area under the curve
peak thrombin generation dose dependence ([2]; 25-200 mg QD/BID): clear and robust dose dependent reduction in peak thrombin generation
Tmax ([3]; Day 4, 25 mg twice daily): approximately 2 hours
Tmax ([3]; Day 4, 50 mg once daily): approximately 4 hours
Tmax ([3]; human, in vivo, po, 100 mg): ~2 h
Tmax ([3]; human, in vivo, po, 200 mg): ~4 h
observed concentration, Day 4 12 hours after dosing ([3]; in vivo): higher
observed concentration, Day 7 12 hours after dosing ([3]; in vivo): lower
time to steady state of mean trough plasma concentrations ([3]; in vivo): approximately 4 Day
VTE reduction versus enoxaparin ([4]; 50 mg twice daily): superior to enoxaparin
VTE prevention versus enoxaparin 40 mg once daily ([4]; 50-200 mg twice daily): superior to enoxaparin 40 mg once daily
reduction in total VTE versus enoxaparin ([4]; each total daily dose regimen ≥100 mg): statistically significant reductions in total VTE compared to enoxaparin
median Tmax ([5]; healthy volunteers, twice daily): approximately 3 hours
terminal plasma half-life (T1/2) ([5]; human, oral): 13 to 16 h
fatal bleeding ([6]; AXIOMATIC-TKR / AXIOMATIC-SSP): No fatal bleeding
symptomatic intracranial hemorrhage ([6]; AXIOMATIC-TKR / AXIOMATIC-SSP): no increases in symptomatic intracranial hemorrhage
dose-response for bleeding events ([6]; AXIOMATIC-TKR and AXIOMATIC-SSP): No dose-response relationship
dose-response for primary composite efficacy endpoint ([7]; 25 mg QD to 200 mg BID, symptomatic ischaemic stroke and incident covert brain infarction): no significant dose-response
symptomatic ischaemic strokes ([7]; all doses except 200 mg BID, pre-specified secondary analysis): numerically fewer symptomatic ischaemic strokes
incident covert brain infarcts versus placebo ([7]; milvexian doses): no effect compared to placebo
ΔΔQTcF, highest upper limit of 2-sided 90% CI ([8]; 100 mg milvexian): 5.16 ms
ΔΔQTcF at milvexian Tmax, upper limit of 90% CI ([8]; 100 mg twice daily): below 10 ms
ΔΔQTcF, highest upper limit of 2-sided 90% CI ([8]; 200 mg milvexian): 4.57 ms
ΔΔQTcF at milvexian Tmax, upper limit of 90% CI ([8]; 200 mg twice daily): below 10 ms
safety and tolerability ([8]; multiple doses of 100 and 200 mg, healthy adults): generally safe and well tolerated
QT/QTc interval prolongation ([8]; therapeutic (100 mg) and supratherapeutic (200 mg) doses): does not show evidence of QT/QTc interval prolongation of clinical or regulatory concern
serious bleeding assessed as adverse drug reactions [9]: gastrointestinal bleeding, procedural hemorrhage, nervous system disorder bleeding (hemorrhagic transformation of ischemic stroke and subdural hematoma) and hematuria
rate of major bleeding versus placebo ([10]; 25 mg once daily and twice daily): the same as for placebo
major bleeding (BARC Type 3/5) ([10]; 50 mg twice daily and above): Moderate increases in major bleeding
renal serious and non-serious adverse events leading to discontinuation ([10]; 200 mg twice daily): higher rate
study drug discontinuations for adverse events ([10]; 200 mg twice daily): highest rate of study drug discontinuations for adverse events
ISTH major and CRNM bleeding, and all bleeding ([10]; all milvexian doses): increases in ISTH major and CRNM bleeding (mainly driven by CRNM), as well as all bleeding
intracranial haemorrhage or symptomatic haemorrhagic transformation of brain infarction (modified BARC type 3c) versus placebo ([10]; all milvexian doses): no increase
fatal bleeding (BARC type 5) ([10]; in the study): no fatal bleeding
dose-response for major bleeding ([10]; main composite safety endpoint): no significant dose-response
incidence of major bleeding ([10]; trial population): 1-2%
steady state Cmax, mean (std) ([11]; 100 mg BID as monotherapy): 1760 (566) ng/ml
steady state AUC0-24, mean (std) ([11]; 100 mg BID as monotherapy): 36200 (12900) ng*h/mL
steady state Cmax, mean (std) [11, 14]: 1670 (536) ng/mL
steady state AUC0-24, mean (std) [11, 14]: 35000 (12100) ng*h/mL

COc1ccc(-n2nc(C(N)=O)c3c2C(=O)N(c2ccc(N4CCCCC4=O)cc2)CC3)cc1 [apixaban]
VTE prevention versus enoxaparin 40 mg once daily ([12]; 2.5 mg twice daily): superior to enoxaparin 40 mg once daily
bleeding [12]: dose-related bleeding

O=C(NC[C@H]1CN(c2ccc(N3CCOCC3=O)cc2)C(=O)O1)c1ccc(Cl)s1 [rivaroxaban]
VTE prevention versus enoxaparin 40 mg once daily ([12]; 10 mg once daily): superior to enoxaparin 40 mg once daily
bleeding [12]: dose-related bleeding

COc1c(N2C[C@@H]3CCCN[C@@H]3C2)c(F)cc2c(=O)c(C(=O)O)cn(C3CC3)c12 [moxifloxacin]
assay sensitivity (positive control) ([8]; single 400 mg dose): demonstrated
participants with treatment-emergent change from baseline of QTcB>60 ms ([8]; single 400 mg dose, one participant): 1.7%

enoxaparin
aPTT, measured value, median ([1]; Day 1 2 h): 27.5 s
aPTT, measured value, median ([1]; Day 1 4 h): 27.75 s
aPTT, measured value, median ([1]; Day 2 Predose): 27.4 s
aPTT, measured value, median ([1]; Day 4 4 h): 26.1 s
aPTT, measured value, median ([1]; Day 4 Predose): 25.8 s
aPTT, measured value, median ([1]; Day 10-14): 25.9 s
FXI:c, % change from baseline, mean ([13]; Day 1 4 h): −7.24%
FXI:c, % change from baseline, median ([13]; Day 1 4 h): −7.24%
FXI:c, measured value, mean ([13]; Day 1 4 h): 1.06
FXI:c, measured value, median ([13]; Day 1 4 h): 1.07
FXI:c, % change from baseline, mean ([13]; Day 10-14): 36.64%
FXI:c, % change from baseline, median ([13]; Day 10-14): 37.21%
FXI:c, measured value, mean ([13]; Day 10-14): 1.36
FXI:c, measured value, median ([13]; Day 10-14): 1.39
ETP Lag Time, measured value, median ([2]; Day 1 2 h): 7.02 min
ETP Peak Height, measured value, mean ([2]; Day 1 2 h): 171.15 nmol/L
ETP Lag Time, measured value, mean ([2]; Day 1 4 h): 8.39 min
ETP Lag Time, measured value, median ([2]; Day 1 4 h): 6.83 min
ETP Peak Height, measured value, mean ([2]; Day 1 4 h): 183.54 nmol/L
ETP Peak Height, measured value, median ([2]; Day 1 4 h): 160.49 nmol/L
ETP Lag Time, measured value, mean ([2]; Day 2 Predose): 6.98 min
ETP Lag Time, measured value, median ([2]; Day 2 Predose): 5.7 min
ETP Peak Height, measured value, mean ([2]; Day 2 Predose): 232.14 nmol/L
ETP Peak Height, measured value, median ([2]; Day 2 Predose): 214.37 nmol/L
ETP Lag Time, measured value, mean ([2]; Day 4 4 h): 8.16 min
ETP Lag Time, measured value, median ([2]; Day 4 4 h): 7.44 min
ETP Peak Height, measured value, mean ([2]; Day 4 4 h): 210.21 nmol/L
ETP Peak Height, measured value, median ([2]; Day 4 4 h): 196.02 nmol/L
ETP Lag Time, measured value, mean ([2]; Day 4 Predose): 7.44 min
ETP Lag Time, measured value, median ([2]; Day 4 Predose): 5.96 min
ETP Peak Height, measured value, mean ([2]; Day 4 Predose): 250.47 nmol/L
ETP Peak Height, measured value, median ([2]; Day 4 Predose): 227.87 nmol/L
ETP Lag Time, measured value, mean ([2]; Day 10-14): 11.18 min
ETP Lag Time, measured value, median ([2]; Day 10-14): 8.11 min
ETP Peak Height, measured value, mean ([2]; Day 10-14): 213.56 nmol/L
ETP Peak Height, measured value, median ([2]; Day 10-14): 201.82 nmol/L
total VTE rate ([4]; enoxaparin 40 mg once daily): 21.4%
